Laboratory results published in ChEMBL document CHEMBL1201862, “PubChem BioAssay data set” (2004).
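Growth conditions: 96-well plates. Treatment: test compound, 48 hours, 5 concentrations. Analysis: linear interpolation between bracketing concentrations; unreached endpoints set to highest concentration. Here, GI50 denotes the concentration required for 50% inhibition of growth.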 Active and inactive are the calls of the source. Rule as the data show it: active = GI50 up to about 1.1 µM and inactive = higher.

Assays:
Assay in all cases: inhibition of tumour cell growth, NCI panel, 48 h
[1] = test system: Malme-3M
[2] = test system: U-251
[3] = test system: T47D
[4] = test system: SK-MEL-28
[5] = test system: TK-10
[6] = test system: UACC-62
[7] = test system: SW-620
[8] = test system: NCI-H460
[9] = test system: MOLT-4
[10] = test system: SF-268
[11] = test system: M14
[12] = test system: SR
[13] = test system: A498
[14] = test system: HOP-92
[15] = test system: OVCAR-8
[16] = test system: A549
[17] = test system: OVCAR-4
[18] = test system: 786-0
[19] = test system: K562

Row | Structure (SMILES) | GI50 [1] | GI50 [2] | GI50 [3] | GI50 [4] | GI50 [5] | GI50 [6] | GI50 [7] | GI50 [8] | GI50 [9] | GI50 [10] | GI50 [11] | GI50 [12] | GI50 [13] | GI50 [14] | GI50 [15] | GI50 [16] | GI50 [17] | GI50 [18] | GI50 [19]
1 | O=C1COC(c2ccccc2O)=NN1CCCN1CCCC1 | > 100 µM (inactive) | > 100 µM (inactive) | > 100 µM (inactive) | > 100 µM (inactive) | > 100 µM (inactive) | > 100 µM (inactive) | > 100 µM (inactive) | > 100 µM (inactive) | > 100 µM (inactive) | > 100 µM (inactive) | > 100 µM (inactive) | 60.3 µM (inactive) | > 100 µM (inactive) | > 100 µM (inactive) | > 100 µM (inactive) | > 100 µM (inactive) | > 100 µM (inactive) | > 100 µM (inactive) | 
2 | O=C(/C=C(O)/C(=C/C(=O)c1ccccc1)NN=C(c1ccccc1)c1ccccc1)c1ccccc1 | 25.2 µM (inactive) | 26.7 µM (inactive) | 32.4 µM (inactive) | 51.6 µM (inactive) | 28.4 µM (inactive) | 17.1 µM (inactive) | 33.2 µM (inactive) | 24 µM (inactive) | 14.1 µM (inactive) | 30.3 µM (inactive) | 24.9 µM (inactive) | 9.08 µM (inactive) | 32.4 µM (inactive) | 60.4 µM (inactive) | 44.7 µM (inactive) | 36.1 µM (inactive) | 38.4 µM (inactive) | 31.1 µM (inactive) | 15.2 µM (inactive)
3 | COc1cc(C2c3cc4c(cc3OC(NNC(N)=S)C2C)OCO4)cc(OC)c1OC (stereo not given) | 0.53 µM (active) | 0.362 µM (active) | 26.1 µM (inactive) | 0.524 µM (active) | 5.12 µM (inactive) | 0.318 µM (active) | 0.363 µM (active) | 0.376 µM (active) | 0.374 µM (active) | 3.33 µM (inactive) | 0.351 µM (active) | 0.0811 µM (active) | 0.191 µM (active) | 0.152 µM (active) | 0.411 µM (active) | 0.644 µM (active) | 41.3 µM (inactive) | 0.398 µM (active) | 0.242 µM (active)
4 | Cc1cc(=O)nc(S(=O)(=O)NC(=S)Nc2ccc(Cl)cc2)[nH]1 | > 100 µM (inactive) | > 100 µM (inactive) | 44.9 µM (inactive) | > 100 µM (inactive) | > 100 µM (inactive) | > 100 µM (inactive) | > 100 µM (inactive) | > 100 µM (inactive) | 10.2 µM (inactive) | > 100 µM (inactive) | > 100 µM (inactive) | 18.8 µM (inactive) | > 100 µM (inactive) | > 100 µM (inactive) | > 100 µM (inactive) | > 100 µM (inactive) | > 100 µM (inactive) | > 100 µM (inactive) | 
5 | S=C(NCCc1ccccn1)c1nc[nH]c1C(=S)NCCc1ccccn1 | 35.4 µM (inactive) | 45.5 µM (inactive) | 23.5 µM (inactive) | 52.4 µM (inactive) | 62.1 µM (inactive) | 22.7 µM (inactive) | 32.5 µM (inactive) | 24.1 µM (inactive) |  | 66.1 µM (inactive) | 31.9 µM (inactive) | 34 µM (inactive) | > 100 µM (inactive) | 53.6 µM (inactive) | 28.4 µM (inactive) | 32.3 µM (inactive) | 33.8 µM (inactive) | 53.3 µM (inactive) | 40.8 µM (inactive)
6 | O=[N+]([O-])c1cc(-c2nnc(C34CC5CC(CC(C5)C3)C4)o2)cc([N+](=O)[O-])c1 | 64.4 µM (inactive) | 45.5 µM (inactive) | > 100 µM (inactive) | 86.1 µM (inactive) |  | 86.9 µM (inactive) | 15.4 µM (inactive) | 32.4 µM (inactive) | > 100 µM (inactive) | 86.1 µM (inactive) | 21.5 µM (inactive) | > 100 µM (inactive) | 61.7 µM (inactive) | 36.1 µM (inactive) | 25.5 µM (inactive) | 48.1 µM (inactive) | > 100 µM (inactive) | 34.2 µM (inactive) | 21 µM (inactive)
7 | O=c1[nH]nc(Cc2ccccc2)n1/N=C\c1ccccc1 | > 100 µM (inactive) | 37.1 µM (inactive) | > 100 µM (inactive) | > 100 µM (inactive) | > 100 µM (inactive) | 95.5 µM (inactive) | > 100 µM (inactive) | > 100 µM (inactive) | > 100 µM (inactive) | > 10 µM (inactive) |  | > 100 µM (inactive) | > 100 µM (inactive) | 46.2 µM (inactive) | 90.4 µM (inactive) | > 100 µM (inactive) | > 100 µM (inactive) | 71.3 µM (inactive) | > 100 µM (inactive)
8 | CC(C)C(C=O)C(O)(C(F)(F)F)C(F)(F)F (stereo not given) | > 100 µM (inactive) | > 100 µM (inactive) | > 100 µM (inactive) | > 100 µM (inactive) | > 100 µM (inactive) | > 100 µM (inactive) | > 100 µM (inactive) | > 100 µM (inactive) | > 100 µM (inactive) |  | > 100 µM (inactive) | > 100 µM (inactive) | > 100 µM (inactive) | > 100 µM (inactive) | > 100 µM (inactive) | > 100 µM (inactive) | > 100 µM (inactive) | > 100 µM (inactive) | > 100 µM (inactive)
9 | COc1ccc(/C=C2\C[C@H]3[C@@H]4CCC5=C/C(=N/O)CC[C@]5(C)[C@H]4CC[C@]3(C)\C2=N\O)cc1OC | 43.5 µM (inactive) |  | 7.66 µM (inactive) | 88.5 µM (inactive) |  | 22.2 µM (inactive) | 34.2 µM (inactive) | 3.61 µM (inactive) | 5.79 µM (inactive) | 51.6 µM (inactive) | 40.2 µM (inactive) | 6.14 µM (inactive) | 33.1 µM (inactive) | 7.85 µM (inactive) | 11 µM (inactive) | 6.98 µM (inactive) | 11 µM (inactive) | 17.8 µM (inactive) | 6.92 µM (inactive)
10 | CC(C)(C)OC(=O)N1CC(O)O[C@H](c2ccccc2)[C@@H]1c1ccccc1 (stereo not given in full) | 19.4 µM (inactive) | 14.4 µM (inactive) | 31.1 µM (inactive) | 18.6 µM (inactive) | 17.8 µM (inactive) | 14.3 µM (inactive) | 16.6 µM (inactive) |  | 30.4 µM (inactive) | 25.5 µM (inactive) | 16.4 µM (inactive) | 16.7 µM (inactive) | 21.4 µM (inactive) | 16.7 µM (inactive) | 29.7 µM (inactive) | 18.7 µM (inactive) | 18.5 µM (inactive) | 27.9 µM (inactive) | 33.4 µM (inactive)
11 | Nc1ncnc2c1nc(Cl)n2C1OC2COP(=O)(O)OC2C1O (stereo not given) | 37 µM (inactive) | 50.6 µM (inactive) | 2.38 µM (inactive) | > 87.9 µM (inactive) | 6.49 µM (inactive) | 10.4 µM (inactive) | 3.47 µM (inactive) | 4 µM (inactive) | 2.81 µM (inactive) | > 51.8 µM (inactive) | 6.25 µM (inactive) | 3.55 µM (inactive) | 1.69 µM (inactive) |  | 3.9 µM (inactive) | 23.3 µM (inactive) | 24.2 µM (inactive) | 5.04 µM (inactive) | 1.01 µM (active)
12 | Fc1ccc(OCc2ccc3nc(-c4ccccc4)c(Cl)nc3c2)cc1 | 9.44 µM (inactive) | 16.8 µM (inactive) | 31.6 µM (inactive) | 69.3 µM (inactive) | 31.8 µM (inactive) | 28.8 µM (inactive) | 77.3 µM (inactive) | 30.1 µM (inactive) | 21.6 µM (inactive) | 26 µM (inactive) | 67.8 µM (inactive) | 16.1 µM (inactive) | 25.8 µM (inactive) | 25.7 µM (inactive) | 36.4 µM (inactive) | 38.6 µM (inactive) | 39.5 µM (inactive) | 16.9 µM (inactive) | 
13 | O=C1c2c(ccc3c2CCC3)CC1Cc1ccc2c(c1)CCC2 (stereo not given) | 28.8 µM (inactive) | 24.2 µM (inactive) | 3.05 µM (inactive) | 51.8 µM (inactive) | 29.2 µM (inactive) | 8.24 µM (inactive) | 17.1 µM (inactive) | 33.8 µM (inactive) | 13.1 µM (inactive) | 33.7 µM (inactive) | 32.1 µM (inactive) | 5.27 µM (inactive) | 27.1 µM (inactive) |  | 36.3 µM (inactive) | 28.9 µM (inactive) | 27.5 µM (inactive) | 32.3 µM (inactive) | 14 µM (inactive)
14 | CN(C)c1nc(N(C)C)nc(N(C)C23CC4CC(CC(C4)C2)C3)n1 | 33 µM (inactive) | 30.1 µM (inactive) | 31.4 µM (inactive) | 46.5 µM (inactive) |  | 56.8 µM (inactive) | 34.4 µM (inactive) | 53.1 µM (inactive) |  | 39.5 µM (inactive) | 33.3 µM (inactive) | 39.1 µM (inactive) | > 100 µM (inactive) | 21.8 µM (inactive) | 32.1 µM (inactive) | 39.3 µM (inactive) | 44.8 µM (inactive) | 40.5 µM (inactive) | 49.3 µM (inactive)
15 | CC1=NN(c2nc(N)nc(/C(C#N)=C/c3ccccc3O)n2)C(C)(C)C1 | 18.7 µM (inactive) | 18.4 µM (inactive) | 15.7 µM (inactive) | 16.7 µM (inactive) | 26.7 µM (inactive) | 17.1 µM (inactive) |  | 19.4 µM (inactive) | 30.4 µM (inactive) | 18.2 µM (inactive) | 20.8 µM (inactive) | 35.9 µM (inactive) | 24.7 µM (inactive) | 20.1 µM (inactive) | 26.5 µM (inactive) | 15.9 µM (inactive) | 19 µM (inactive) | 15.7 µM (inactive) | 51.5 µM (inactive)
